Measurements reported in patent US6506793B2, “Citral acetal” (Kao Corporation, priority 2000, dated 2003).

Test system: smell (isovaleric acid) of the socks
Test: Organoleptic evaluation of smell of socks after application onto a bare foot
Assay type: in vivo, human
Parameters: key: 5: Strong; 4: Slightly strong; 3: Moderate; 2: Slightly weak; 1: Weak; 0: Does not smell
Conditions: 2 g of 0.1% solution in ethanol on a bare foot; smell (isovaleric acid) of socks after 8 hours
From the text: The present compounds 1 to 3 obtained in Examples 1 to 3, as well as commercial citral propylene glycol acetal (CITRAL PGA produced by Inoue Koryo Co., Ltd.) and citral hexylene glycol acetal (CITRAL HGA produced by Inoue Koryo Co., Ltd.) as comparative compounds, were used to prepare 0.1% solutions in ethanol respectively, and 2 g solution was applied onto a bare foot. 2 g ethanol (containing no test sample) was applied onto the other bare foot (blank), then socks were put on the feet respectively, and the extent of smell (isovaleric acid) of the socks after 8 hours was subjected to organoleptic evaluation by one skilled examiner in the following 6-level criteria.

Row | SMILES | Strength of Smell
1 | CC(C)=CCCC(C)=CC1OC(C)CC(C)(C)O1 (centres unmarked) [CITRAL HGA, citral hexylene glycol acetal, reference compound] | 5
2 | CC(C)=CCC/C(C)=C/C1OCC(C)O1 (centres unmarked) [CITRAL PGA, citral propylene glycol acetal, reference compound] | 5
3 | CCCCCOCC1COC(C=C(C)CCC=C(C)C)O1 (centres unmarked) [Present Compound 1, citral pentyl glyceryl ether acetal] | 2
4 | CCCCCCCCOCC1COC(C=C(C)CCC=C(C)C)O1 (centres unmarked) [Present Compound 2, citral n-octyl glyceryl ether acetal] | 2
5 | CCCCC(CC)COCC1COC(C=C(C)CCC=C(C)C)O1 (centres unmarked) [Present Compound 3, citral 2-ethyl hexyl glyceryl ether acetal] | 1
